Calls of active or inactive are those of the source.
Experiments:
[1] = Luminescence Cell-Based Dose Response HTS to Identify Activators of Luciferase Translation or Activity in H4 […] Cells. [Related pubchem assays: 1829 (Project Summary), 1814 (Primary HTS)]; assay type: functional
[2] = molecular target: Cytochrome P450 3A4 (Homo sapiens, UniProt P08684);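 also: CYP3A4 tested as one member of a cytochrome P450 panel screen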
[3] = molecular target: Cytochrome P450 2C19 (Homo sapiens, UniProt P33261); assay: Cytochrome panel assay with activity outcomes. Panel member name: p450-cyp2c19 Compounds with AC50 equal or less than 10 uM are considered active; assay type: functional
[4] = Trypanosoma cruzi growth suppression in host cells – NIH3T3 host cells, beta-gal luminescence, confirmation (AID 2044); assay type: functional, cell-based;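 also: intracellular parasites grown in NIH/3T3 mouse fibroblasts as host cells; luminescent beta-galactosidase reporter signal from transgenic T. cruzi replicating inside host cells; inhibitors lower the luminescence signal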
[5] = NIH3T3 cell viability loss – ATP luminescence, mouse fibroblasts, counter-screen, dose response (AID 2010); assay type: functional, cell-based;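 also: cells exposed to compound for about 90 hours before reading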
[6] = molecular target: Cytochrome P450 2C9 (Homo sapiens, UniProt P11712)
[7] = molecular target: T1, Rac GTPase-activating protein 1 (Homo sapiens, UniProt Q9H0H5); assay: blockers of MgcRacGAP-driven Rac1 GTP hydrolysis – biochemical, ADP Hunter fluorescence, primary and confirmatory, confirmation (AID 624330); assay type: functional
T1 sequence (Q9H0H5 whole entry): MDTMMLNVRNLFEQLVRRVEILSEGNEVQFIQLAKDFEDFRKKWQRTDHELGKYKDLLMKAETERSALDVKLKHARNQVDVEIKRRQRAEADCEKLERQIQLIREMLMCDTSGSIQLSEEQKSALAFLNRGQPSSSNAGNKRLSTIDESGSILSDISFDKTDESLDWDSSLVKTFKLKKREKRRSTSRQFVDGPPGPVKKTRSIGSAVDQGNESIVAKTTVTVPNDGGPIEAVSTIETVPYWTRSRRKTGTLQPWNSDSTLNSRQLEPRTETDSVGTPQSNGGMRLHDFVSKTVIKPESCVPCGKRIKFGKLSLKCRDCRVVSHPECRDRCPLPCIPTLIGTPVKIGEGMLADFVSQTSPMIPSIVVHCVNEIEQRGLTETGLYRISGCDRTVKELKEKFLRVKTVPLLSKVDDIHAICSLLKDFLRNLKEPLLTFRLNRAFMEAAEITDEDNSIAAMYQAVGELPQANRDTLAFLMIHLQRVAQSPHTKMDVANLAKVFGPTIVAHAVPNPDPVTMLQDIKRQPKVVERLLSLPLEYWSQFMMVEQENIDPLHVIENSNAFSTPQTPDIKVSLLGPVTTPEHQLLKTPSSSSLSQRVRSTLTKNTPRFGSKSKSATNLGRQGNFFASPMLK

Sequence of Cytochrome P450 2C19 (P33261 whole entry): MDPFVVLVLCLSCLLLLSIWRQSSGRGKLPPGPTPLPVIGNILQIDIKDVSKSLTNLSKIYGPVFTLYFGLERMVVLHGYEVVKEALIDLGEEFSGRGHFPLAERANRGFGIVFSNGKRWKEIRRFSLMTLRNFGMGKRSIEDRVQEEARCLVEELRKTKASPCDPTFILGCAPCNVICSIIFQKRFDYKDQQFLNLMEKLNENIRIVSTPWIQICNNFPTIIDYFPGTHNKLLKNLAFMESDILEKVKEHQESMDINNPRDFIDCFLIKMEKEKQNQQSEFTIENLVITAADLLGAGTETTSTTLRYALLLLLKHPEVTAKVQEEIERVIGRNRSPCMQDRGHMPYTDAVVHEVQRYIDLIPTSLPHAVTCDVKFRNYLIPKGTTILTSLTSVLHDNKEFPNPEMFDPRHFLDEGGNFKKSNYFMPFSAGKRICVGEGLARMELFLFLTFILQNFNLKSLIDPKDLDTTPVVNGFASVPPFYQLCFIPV
Sequence of Cytochrome P450 2C9 (P11712 whole entry): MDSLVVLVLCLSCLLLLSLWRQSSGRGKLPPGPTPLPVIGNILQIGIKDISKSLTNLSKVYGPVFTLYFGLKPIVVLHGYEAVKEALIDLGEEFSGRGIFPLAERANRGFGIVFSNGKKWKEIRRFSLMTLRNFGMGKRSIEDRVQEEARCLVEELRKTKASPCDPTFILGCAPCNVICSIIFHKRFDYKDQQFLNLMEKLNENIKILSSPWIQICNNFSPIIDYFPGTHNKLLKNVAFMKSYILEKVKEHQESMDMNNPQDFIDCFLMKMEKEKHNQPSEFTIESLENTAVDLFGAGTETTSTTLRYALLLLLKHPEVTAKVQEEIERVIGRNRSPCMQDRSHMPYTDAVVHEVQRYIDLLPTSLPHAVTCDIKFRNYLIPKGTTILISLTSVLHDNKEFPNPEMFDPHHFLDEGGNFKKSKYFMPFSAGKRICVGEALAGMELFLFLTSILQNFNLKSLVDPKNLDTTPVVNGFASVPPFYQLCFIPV
Sequence of Cytochrome P450 3A4 (P08684 whole entry): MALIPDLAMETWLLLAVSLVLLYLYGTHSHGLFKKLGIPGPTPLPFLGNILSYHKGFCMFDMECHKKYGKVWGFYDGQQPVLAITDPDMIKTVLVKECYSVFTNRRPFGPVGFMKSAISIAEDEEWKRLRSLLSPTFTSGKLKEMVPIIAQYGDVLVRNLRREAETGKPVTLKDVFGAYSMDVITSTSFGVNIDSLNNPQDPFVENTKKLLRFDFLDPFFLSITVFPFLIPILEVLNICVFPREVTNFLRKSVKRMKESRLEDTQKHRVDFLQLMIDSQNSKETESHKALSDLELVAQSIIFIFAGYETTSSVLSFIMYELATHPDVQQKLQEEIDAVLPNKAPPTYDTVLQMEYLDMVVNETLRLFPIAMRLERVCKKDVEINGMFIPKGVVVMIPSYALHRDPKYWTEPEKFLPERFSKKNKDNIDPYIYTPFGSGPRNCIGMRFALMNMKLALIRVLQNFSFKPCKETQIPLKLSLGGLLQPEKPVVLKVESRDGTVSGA

## Cc1ccc(NC(=O)c2ccc(OC(=O)CCN3C(=O)c4ccccc4C3=O)cc2)cc1
[1]
  EC50: 37.8 µM (active)

## CCNc1ncc2nc(C)c(=O)n(CCc3ccccc3)c2n1
[2]
  AC50: 15.8 µM (inconclusive)

## C[C@H]1COC(=O)[C@H]2CCCN2C(=O)[C@@H](C)COC(=O)[C@H](Cc2ccccc2)NC1=O
[3]
  AC50: inconclusive

## Cc1ccc(CS(=O)(=O)CCC(=O)NCCCN2CCCC2)cc1
[3]
  AC50: inconclusive

## CC(=O)OC1COC(N2CCc3cc([N+](=O)[O-])ccc32)C(OC(C)=O)C1OC(C)=O (stereo not drawn)
[2]
  AC50: 25.1 µM (inconclusive)
[3]; read-out: AC50
  AC50: 3.98 µM (inconclusive)

## CCCn1c2c(c(O)c(C(=O)Nc3ccc(OC)cc3)c1=O)CCCC2
[4]
  EC50: 2.88 µM (active)
[5]
  EC50: > 30 µM (not active)

## COc1ccc2oc(C(=O)c3ccccc3)c(N)c2c1
[2]
  AC50: 14.1 µM (inconclusive)
[3]; read-out: AC50
  AC50: 5.01 µM (inconclusive)

## CN(C)c1nc(NC(C)(C)C)nc(NC(C)(C)C)n1
[4]
  EC50: 0.596 µM (active)
[5]
  EC50: > 60 µM (not active)

## Cc1[nH]c2ccccc2c1C(=O)CN1CC=C(c2ccccc2)CC1
[4]
  EC50: 0.857 µM (active)
[5]
  EC50: > 60 µM (not active)

## CCc1cccc(CN2CCC(CNC(=O)Nc3ccc(Cl)cc3)CC2)c1
[4]
  EC50: 1.25 µM (active)
[5]
  EC50: > 60 µM (not active)

## COC(=O)C1CCN(c2cc(=O)n(C3CCCCC3)c(=O)[nH]2)CC1
[2]
  AC50: 14.1 µM (inconclusive)
[6]
  AC50: 7.94 µM (inconclusive)

## CC(C)C(=O)Nc1ccc(C(=O)NNC(=O)CCCOc2ccc(Cl)cc2Cl)cc1
[6]
  AC50: 2.51 µM (inconclusive)

## Cc1ccccc1-c1ccc2ncnc(N3CCNCC3)c2c1
[2]
  AC50: 15.8 µM (inconclusive)
[3]; read-out: AC50
  AC50: 15.8 µM (inconclusive)

## O=C1CN2CCN(CC2)CC(=O)Nc2ccc(cc2)S(=O)(=O)c2ccc(cc2)NC(=O)CN2CCN(CC2)CC(=O)Nc2ccc(cc2)S(=O)(=O)c2ccc(cc2)N1
[6]
  AC50: 0.398 µM (inconclusive)

## Nc1ccc(Oc2ccc3nc(-c4ccccc4)c(-c4ccc([N+](=O)[O-])cc4)nc3c2)cc1
[6]
  AC50: 3.98 µM (inconclusive)

## O=C(c1cc(-c2ccncc2)nc2ccccc12)N1CCN(c2ccc(N3CCOCC3)nn2)CC1
[3]; read-out: AC50
  AC50: 15.8 µM (inconclusive)

## COc1ccc(OC)c(CN2CCN(Cc3cccc4ccccc34)CC2)c1
[7]
  IC50: 66 µM (active)

## COc1ccccc1N1CCN(CC(=O)c2ccc(F)cc2)CC1
[7]
  IC50: 157 µM (active)

## COc1ccc(CNC(=O)C2CCCN(Cc3nc(-c4cccc(C)c4)oc3C)C2)cc1 (stereo not drawn)
[4]
  EC50: 0.381 µM (active)
[5]
  EC50: > 60 µM (not active)

## COc1ccc(NC2CCCN(C(=O)CCCn3cncn3)C2)cc1OC (stereo not drawn)
[7]
  IC50: 237 µM (active)

## CCN(CC)S(=O)(=O)N1CCC(C(=O)NCc2ccc(C)cc2)CC1
[3]
  AC50: inconclusive

## Cc1cc(Br)ccc1NC(=O)CCSc1ccccc1
[2]
  AC50: 6.31 µM (inconclusive)

## COc1ccccc1-c1cncnc1NCCc1cnc[nH]1
[6]
  AC50: 0.501 µM (inconclusive)

## O=c1c(-c2cccc(Cl)c2)nc2cncnc2n1-c1ccccc1
[2]
  AC50: 25.1 µM (inconclusive)

## CN1CCN(c2ncnc3ccc(-c4ccc5c(c4)OCO5)cc23)CC1
[3]; read-out: AC50
  AC50: 39.8 µM (inconclusive)

## CCCCOC(=O)CSc1nnc(-c2cc(OC)c(OC)c(OC)c2)o1
[2]
  AC50: 25.1 µM (inconclusive)
[6]
  AC50: 8.91 µM (inconclusive)

## CN1CCN(CCOCCOc2ccc(Br)cc2Cl)CC1
[7]
  IC50: 84.1 µM (active)

## Cc1nn(C(C)C(=O)N2CCCC2)c(=O)c2nn(-c3ccccc3)c(C)c12 (stereo not drawn)
[4]
  EC50: 48.4 µM (active)
[5]
  EC50: > 60 µM (not active)

## COc1cc(C(=O)Nc2ccc3c(c2)N(C(=O)CCN(C)C)c2ccccc2CC3)cc(OC)c1OC
[4]
  EC50: 0.642 µM (active)
[5]
  EC50: > 60 µM (not active)

## COCCNCc1nc(O)c2c(-c3ccccc3)c(C)sc2n1
[7]
  IC50: 225 µM (active)

## CS(=O)(=O)N1CCC2(CC1)CN(c1ncccn1)C2
[2]
  AC50: 20 µM (inconclusive)

## COC(=O)[C@@]1(Cc2ccc(F)cc2)[C@@H]2C(=CC(=O)[C@H]2CC(=O)C(=O)N2CCCC2)CN1C(=O)c1ccccc1
[2]
  AC50: 5.01 µM (inconclusive)

## CCOC(=O)c1cc(NC(=O)c2ccc(OC)cc2)c(=O)oc1-c1ccccc1
[6]
  AC50: 2.24 µM (inconclusive)

## CN(Cc1ccco1)c1ncncc1-c1ccc2c(c1)OCO2
[6]
  AC50: 0.794 µM (inconclusive)

## Cc1cc(/C=C2/NC(=O)N(Cc3ccccc3F)C2=O)c(C)n1C(C)C
[4]
  EC50: 0.154 µM (active)
[5]
  EC50: > 60 µM (not active)

## CCC(O)CNc1nc(-n2nc(C)cc2C)nc2sc3c(c12)CC(C)(C)OC3 (stereo not drawn)
[2]
  AC50: 7.08 µM (inconclusive)
[3]; read-out: AC50
  AC50: 20 µM (inconclusive)

## CSc1nc(N)nc(SCC(=O)C23CC4CC(CC(C4)C2)C3)c1C#N
[4]
  EC50: 1.59 µM (active)
[5]
  EC50: > 60 µM (not active)

## COc1cc(OC)c(OC)cc1CN1CCN(C(=O)c2cccc3ccccc23)CC1
[7]
  IC50: 244 µM (active)

## COc1ccc(-c2cnc(N)nc2-c2ccc(OCc3ccccc3)cc2O)cc1
[4]
  EC50: 2.19 µM (active)
[5]
  EC50: 10.6 µM (active)

## O=C(CN(c1ccccc1)S(=O)(=O)c1ccccc1[N+](=O)[O-])NN=C1CCCCCCC1
[6]
  AC50: 1.58 µM (inconclusive)

## O=C(Nc1ccccc1N1CCCC1)c1ccc([N+](=O)[O-])cc1Cl
[4]
  EC50: 2.37 µM (active)
[5]
  EC50: > 60 µM (not active)

## Cc1noc(C)c1C(=O)N1CCC2(CCN(Cc3ccncc3)CC2)CC1
[2]
  AC50: 12.6 µM (inconclusive)

## CCCN1CCC(N(C)CCc2ccc(OC)c(OC)c2)CC1
[4]
  EC50: 0.124 µM (active)
[5]
  EC50: > 60 µM (not active)

## CCC(=O)NC(Nc1sc2c(c1C(=O)OC)CCCC2)(C(F)(F)F)C(F)(F)F
[6]
  AC50: 1.26 µM (inconclusive)

## O=C(CSc1ccc2ccccc2c1)N1CCN(c2ccc(O)cc2)CC1
[7]
  IC50: 45.1 µM (active)

## CCOC(=O)Nc1ccc2c(c1)N(C(=O)CCN1CCN(C)CC1)c1ccccc1S2
[2]
  AC50: 1.26 µM (inconclusive)
[3]; read-out: AC50
  AC50: 1.26 µM (inconclusive)

## Cn1nc([N+](=O)[O-])nc1Sc1ccc(Cl)cc1
[4]
  EC50: 0.108 µM (active)
[5]
  EC50: > 30 µM (not active)

## CCC(=O)N[C@@H]1CCc2cccc(OC)c2C1
[6]
  AC50: 15.8 µM (inconclusive)

## CCCCNC(=O)C1CCN(Cc2ccccn2)CC1
[3]; read-out: AC50
  AC50: 35.5 µM (inconclusive)

## CCN(CC)CCN(C(=O)c1cccc([N+](=O)[O-])c1)c1nc2ccc(OC)cc2s1
[4]
  EC50: 0.158 µM (active)
[5]
  EC50: > 60 µM (inconclusive)

## CCOC(=O)c1sc(NC(=O)CCCCCN2C(=O)c3cccc4cccc(c34)C2=O)nc1C
[2]
  AC50: 5.01 µM (inconclusive)
[6]
  AC50: 2.24 µM (inconclusive)
[3]; read-out: AC50
  AC50: 6.31 µM (inconclusive)

## CC(C)CC1NC(=S)N(C2CCCCC2)C1=O (stereo not drawn)
[2]
  AC50: 20 µM (inconclusive)

## CC(C)(C)C(=O)OCc1cn(-c2ccc(Cl)cc2)nn1
[6]
  AC50: 28.2 µM (inconclusive)

## Cc1ccccc1-c1ccc2ncnc(NCc3cccs3)c2c1
[6]
  AC50: 1.26 µM (inconclusive)

## O=C(O)C1CCN(c2ncccn2)CC1
[3]; read-out: AC50
  AC50: 0.0316 µM (inconclusive)

## CC(=O)c1cccc(Nc2cc(C)nc3c(C)cc(C)cc23)c1
[4]
  EC50: 1.42 µM (active)
[5]
  EC50: > 60 µM (inconclusive)

## O=C(NC1CCCCC1)C(c1ccccc1)N1CCOCC1 (stereo not drawn)
[3]; read-out: AC50
  AC50: 20 µM (inconclusive)

## COc1cc(C(=O)N/N=C(\C)c2ccc(NC(=O)Cc3ccccc3)cc2)ccc1O
[7]
  IC50: 145 µM (active)

## CN(C)/N=C/c1ccc(OC(=O)c2cccc([N+](=O)[O-])c2)cc1
[7]
  IC50: 50.4 µM (active)

## Cc1ccc(/C=N/n2c(S)nnc2COc2ccccc2)s1
[3]; read-out: AC50
  AC50: 2.24 µM (inconclusive)

## COc1ccc(CNc2ncncc2-c2ccccc2OC)c(OC)c1
[6]
  AC50: 0.794 µM (inconclusive)

## C[N+]1(C)CCN(c2ccccc2)CC1 [DIMETHYLPHENYLPIPERAZINIUM]
[2]
  AC50: 10 µM (inconclusive)

## O=C1C[C@@H](c2ccc(O)cc2)Oc2cc(O)cc(O)c21 [NARINGENIN]
[3]; read-out: AC50
  AC50: 3.98 µM (inconclusive)

## CC(=O)Oc1cc(C(F)(F)F)ccc1C(=O)O [TRIFLUSAL]
[3]; read-out: AC50
  AC50: 3.98 µM (inconclusive)

Reference: ChEMBL document CHEMBL1201862, “PubChem BioAssay data set” (2004)
